From PMC4687057, “The function of phosphatidylinositol 5-phosphate 4-kinase γ (PI5P4Kγ) explored using a specific inhibitor that targets the PI5P-binding site” (Biochemical Journal, 2015)

How the values were obtained:
[1] = molecular target: T1, phosphatidylinositol 5-phosphate 4-kinase γ (PI5P4Kγ) (Homo sapiens, UniProt Q8TBX8); assay: HDX-MS with purified protein; IC50 from […]P lipid kinase assay on recombinant enzyme; type: biochemical
T1 construct: gene PIP4K2C; PI5P4Kγ from GST fusion (pGEX6P), GST cleaved with PreScission protease
T1 sequence (Q8TBX8 2-421): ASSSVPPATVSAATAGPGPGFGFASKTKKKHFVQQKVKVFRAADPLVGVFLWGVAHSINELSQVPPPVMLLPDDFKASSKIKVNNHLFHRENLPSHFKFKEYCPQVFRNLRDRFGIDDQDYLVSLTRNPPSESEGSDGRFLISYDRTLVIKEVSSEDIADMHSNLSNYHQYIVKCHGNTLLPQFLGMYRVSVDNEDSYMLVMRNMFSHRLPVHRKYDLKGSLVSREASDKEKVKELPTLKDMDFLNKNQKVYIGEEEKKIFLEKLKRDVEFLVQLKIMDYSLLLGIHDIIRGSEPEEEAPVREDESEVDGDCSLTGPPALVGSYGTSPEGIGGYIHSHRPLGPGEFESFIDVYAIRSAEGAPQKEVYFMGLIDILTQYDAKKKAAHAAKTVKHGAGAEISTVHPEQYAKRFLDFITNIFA

[2] = molecular target: T2, PI5P4Kγ+ (E378H,I159V,D161V) mutant (Homo sapiens, UniProt Q8TBX8, D161V/E153T/I159V/Q378H); assay: […] lipid kinase assay, % inhibition at […]; type: biochemical
T2 construct: gene PIP4K2C
T2 sequence (Q8TBX8 2-421 E153T/I159V/D161V/Q378H): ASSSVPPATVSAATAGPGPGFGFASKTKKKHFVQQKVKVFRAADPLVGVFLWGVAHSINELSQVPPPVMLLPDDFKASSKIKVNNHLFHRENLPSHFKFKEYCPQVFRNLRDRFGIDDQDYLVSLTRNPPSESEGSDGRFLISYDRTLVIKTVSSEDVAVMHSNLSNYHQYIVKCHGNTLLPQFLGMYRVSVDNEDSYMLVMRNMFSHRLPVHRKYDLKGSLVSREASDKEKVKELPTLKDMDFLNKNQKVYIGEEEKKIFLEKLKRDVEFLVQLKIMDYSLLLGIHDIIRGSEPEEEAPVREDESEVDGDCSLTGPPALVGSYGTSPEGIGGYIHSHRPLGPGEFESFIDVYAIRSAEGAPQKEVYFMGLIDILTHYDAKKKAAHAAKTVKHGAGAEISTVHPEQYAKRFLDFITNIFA

FC(F)(F)c1ccccc1-c1nc(NCc2cccs2)c2ccccc2n1 [compound 1, NIH-12848]
IC50 [1]: 3.3 µM
inhibition at 10 µM [2]: 71%
